Experimental data reported in publication PMC11530130, “Peripherally restricted PICK1 inhibitor mPD5 ameliorates pain behaviors in murine inflammatory and neuropathic pain models” (JCI Insight, 2024).
Values joined by “and” are separate entries in the source; they are usually repeats but may differ in a detail not shown here. Equal entries are not always repeated.

Test: Small-angle x-ray scattering (SAXS), core-shell micelle model
Format: physicochemical
Experimental: Peripherally restricted PICK1 inhibitor mPD5 ameliorates pain behaviors in murine inflammatory and neuropathic pain models.
SUPPORTING INFORMATION: Supplemental Table 1+2.
Supplemental Table 1. SAXS data collection and fitting table.
Buffer 50 mM Tris, 125 mM NaCl, pH 7.4
Extinction coefficient 11 000 M-1 cm-1
Molecular weight 1874 g/mol
Peptide concentration 0.19 - 9.37 mg/ml
SAXS data collection details
Instrument P12, Petra III, DESY [1]
Absolute calibration Water
Indirect Fourier Bayersapp.org transformations to obtain
Data rebin WillItRebin [4] […]
nmolec-hydrophilic [Å3] 2012 nmolec-hydrophobic [Å3] 377
Rtotal [Å] 22.6 (corresponding to a hydrophilic shell thickness of Dshell=10.4 Å) […]
[1] C. E. Blanchet, A. Spilotros, F. Schwemmer, M. A. Graewert, A. Kikhney, C. M. Jeffries, D. Franke, D. Mark, R. Zengerle, F.
Cipriani, S. Fiedler, M. Roessle, D. I. Svergun, J Appl Crystallogr 2015, 48, 431.
[2] S. Hansen, Journal of Applied Crystallography 2012, 45, 566.
[3] S. Hansen, Journal of Applied Crystallography 2014, 47, 1469.
[4] WillItFit MC Pedersen 2013. […]
Small Angle X-ray Scattering (SAXS).
Concentration series of mPD5 ranging from […] to 9.37 mg/mL was prepared in buffer containing 50 mM Tris-HCl (pH 7.4) and 125 mM NaCl. Samples were measured at the P12 SAXS Beamline, PetraIII, DESY, Hamburg Germany (2). Initial data processing including radial averaging and conversion of the data into absolute scaled scattering intensity, I(q), as a function of the scattering vector q, where q= 4π sin(θ)/λ (θ = half scattering angle, λ = x-ray wave length) was done using the standard software, procedures and settings at the beamline (2). The processed scattering data was merged, buffer subtracted, and binned using WillItRebin with a binning factor of 1.02. The modelling of the SAXS data was performed using a molecular constrained core-shell model for polydisperse spherical micelles. In brief, it was assumed that the peptide aggregated into polydisperse spherical micelles. Here, the hydrophobic tails form the core, and these are surrounded by the hydrophilic part (the shell) in a spherical micelle. For the modelling, total scattering lengths of 2.26e-10 cm and 2.96e-11 cm were used for the headgroups and tail, respectively. These were calculated by multiplying the […]
electrons) by the scattering length of the electron which is just the classical electron radium of 2.82 fm. For the scattering length density calculations, it was assumed that the molecular volume of the C13 alkyl chain,nmolec-hydrophobic, was 377 Å3 as estimated by Tanfords empirical formula (V = 27.4 + 26.9n!) where nC denotes the number of carbons. i.e. 13 in this case (3).
The hydrophilic headgroup,nmolec-hydrophilic, was as a first estimate assumed to have a mass density corresponding to that of a soluble protein (i.e. 1.35 g/cm3), this yielded a molecular volume of 2078 Å3. This value was then taken as a free parameter in the fits and refined to a molecular volume of ~2010 Å3 corresponding to a mass density of 1.39 g/cm3 and with very little variation over the fits to the different sample concentrations. Excess scattering length densities of the core and shell of the micelle were then calculated in relation to the scattering length density of water (9.4e10 1/cm2). Using this molecular constrained model, the volumes of the core and of the shell were coupled internally through the fitted aggregation number, Nagg and the implicit […]
The relative polydispersity, srelative was described by a Gauss function of Nagg. The Gauss was truncated at ±3s. Through the fits, this value is refined to srelative values of the aggregation number at ~30% for the highest concentrations to up to 50% for the lowest concentrations. Note, however, that this variation in the particle volume translates to about 10%-15% variation of the particle radius. A full overview of the resulting fit-parameters is provided in Supplemental Table S1. As usual a small surface roughness (typical at the order of 2Å) and a small constant background were also […]

[1] = SAXS pair-distance distribution p(r)
[2] = spherical core-shell model fit, average

Structure (SMILES): CCCCCCCCCCCCCC(=O)N(CCOCCOCCC(=O)N[C@@H](Cc1c[nH]cn1)C(=O)N[C@@H](Cc1c[nH]c2ccccc12)C(=O)N[C@@H](CC(C)C)C(=O)N[C@@H](CCCCN)C(=O)N[C@H](C(=O)O)C(C)C)CCOCCOCCC(=O)N[C@@H](Cc1c[nH]cn1)C(=O)N[C@@H](Cc1c[nH]c2ccccc12)C(=O)N[C@@H](CC(C)C)C(=O)N[C@@H](CCCCN)C(=O)N[C@H](C(=O)O)C(C)C [mPD5, myristoyl-NPEG4-(HWLKV)2]
- Dmax [1]: approximately 50 Å
- radius of gyration (Rg) [1]: approximately 30 Å
- Nagg, core shell model fit of single samples (five samples of the series 0.19 - 9.37 mg/ml, concentration of each column not given): 18.7 and 21.5 and 22.2 and 21.0 and 19.0
- hydrophobic core radius (Rcore) [2]: 12.2 Å
- shell thickness (Dshell) [2]: 10.4 Å
- total radius (Rtotal) [2]: 22.6 Å
